From paper PMC10482975 (Nature Communications, 2023)
Positions count from the first letter of the chain named. Like-named read-outs stand apart in the source and are kept apart here.

Tests used:
M4 mAChR L190F = biological target: T1, M4 mAChR L190F (Homo sapiens, UniProt P08173, L190F); assay: [3H]-NMS radioligand dissociation binding, M4 mAChR L190F; parameters: unit not given here
T1 construct: expressed in transfected cells
T1 sequence (P08173 1-479 L190F): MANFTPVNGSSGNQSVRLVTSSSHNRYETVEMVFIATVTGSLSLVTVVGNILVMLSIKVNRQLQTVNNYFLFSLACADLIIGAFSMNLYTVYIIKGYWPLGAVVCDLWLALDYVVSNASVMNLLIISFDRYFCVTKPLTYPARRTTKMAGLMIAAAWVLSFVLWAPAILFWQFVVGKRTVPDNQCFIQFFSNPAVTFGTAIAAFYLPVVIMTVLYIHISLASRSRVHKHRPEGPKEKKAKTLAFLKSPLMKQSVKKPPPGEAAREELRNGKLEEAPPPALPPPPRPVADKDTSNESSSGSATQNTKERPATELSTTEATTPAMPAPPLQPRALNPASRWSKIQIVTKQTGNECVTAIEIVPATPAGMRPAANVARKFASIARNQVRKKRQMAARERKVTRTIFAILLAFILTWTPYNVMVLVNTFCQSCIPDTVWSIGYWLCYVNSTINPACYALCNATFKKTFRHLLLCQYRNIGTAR
Description: (§1) Flp-In Chinese hamster ovary (CHO) (Thermo Fisher Scientific) cells stably expressing mAChR WTs or mutant constructs were cultured in Dulbecco’s modified Eagle’s medium (DMEM, Invitrogen) containing 5% foetal bovine serum (FBS; ThermoTrace) and […] of hygromycin (Roche) in a humidified incubator (37 °C, 5% CO2). Upon reaching confluence, media was removed, cells were washed with phosphate buffered saline (PBS) and harvested from tissue culture flasks using versene (PBS with 0.2 g EDTA). Cells were then pelleted through centrifugation at 350 × g for three minutes followed by resuspension in DMEM + 5% FBS. Cells were then either plated for an assay or reseeded into a tissue culture flask.

M1 mAChR WT = biological target: T2, M1 mAChR WT (Homo sapiens, UniProt P11229); type: binding
T2 construct: expressed in transfected cells
T2 sequence (P11229 1-460): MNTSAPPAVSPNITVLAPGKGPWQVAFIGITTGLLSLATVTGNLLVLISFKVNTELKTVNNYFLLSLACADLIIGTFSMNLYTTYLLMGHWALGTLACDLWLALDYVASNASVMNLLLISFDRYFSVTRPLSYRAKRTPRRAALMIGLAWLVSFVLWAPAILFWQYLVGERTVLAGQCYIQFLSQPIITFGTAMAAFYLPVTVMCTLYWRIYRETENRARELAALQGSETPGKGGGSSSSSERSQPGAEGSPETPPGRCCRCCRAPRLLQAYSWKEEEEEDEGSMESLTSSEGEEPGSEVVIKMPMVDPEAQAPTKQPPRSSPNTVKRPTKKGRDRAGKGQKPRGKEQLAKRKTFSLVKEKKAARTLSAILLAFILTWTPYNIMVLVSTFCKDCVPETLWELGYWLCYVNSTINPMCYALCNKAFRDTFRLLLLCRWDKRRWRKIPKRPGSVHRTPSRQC
Description: as §1

M4 mAChR Q184A = biological target: T3, M4 mAChR Q184A (Homo sapiens, UniProt P08173, Q184A); assay: [3H]-NMS radioligand dissociation binding, M4 mAChR Q184A; parameters: unit not given here
T3 construct: expressed in transfected cells
T3 sequence (P08173 1-479 Q184A): T1 sequence (P08173 1-479 L190F) with Q184A, F190L
Description: as §1

[1] = system: M4 mAChR knockout (KO) mice / M1 mAChR KO mice; details: cited from earlier work
M4 mAChR = biological target: T4, M4 mAChR (Homo sapiens, UniProt P08173)
T4 sequence (P08173 1-479): T1 sequence (P08173 1-479 L190F) with F190L

[2] = + 10uM LY2033 (Allosteric Ligand), Time 0 min (Total Binding)
[3] = + 10uM LY2033 (Allosteric Ligand), Time 30 min
[4] = + 10uM LY2033 (Allosteric Ligand), Time 60 min
[5] = + 10uM LY2033 (Allosteric Ligand), Time 90 min
[6] = + 10uM LY2033 (Allosteric Ligand), Time 120 min
[7] = + 10uM LY2033 (Allosteric Ligand), Time 180 min
[8] = + 10uM LY2033 (Allosteric Ligand), Time 300 min

Structure (SMILES): COc1nc2sc(C(=O)NC3CC3)c(N)c2c(C)c1Cl [LY2033298]
- [3H]-NMS binding remaining vs Total Binding, MEAN (M4 mAChR L190F; [2]): 100
- [3H]-NMS binding remaining vs Total Binding, MEAN (M4 mAChR L190F; [3]): 104.676
- [3H]-NMS binding remaining vs Total Binding, MEAN (M4 mAChR L190F; [4]): 101.661
- [3H]-NMS binding remaining vs Total Binding, MEAN (M4 mAChR L190F; [5]): 96.3234
- [3H]-NMS binding remaining vs Total Binding, MEAN (M4 mAChR L190F; [6]): 92.5099
- [3H]-NMS binding remaining vs Total Binding, MEAN (M4 mAChR L190F; [7]): 89.5439
- [3H]-NMS binding remaining vs Total Binding, MEAN (M4 mAChR L190F; [8]): 70.7364
- [3H]-NMS binding remaining (0 min = 100), MEAN (M1 mAChR WT; 10uM Atr + 30uM LY2033, 10 min): 100.177
- [3H]-NMS binding remaining (0 min = 100), MEAN (M1 mAChR WT; 10uM Atr + 30uM LY2033, 20 min): 95.7624
- [3H]-NMS binding remaining (0 min = 100), MEAN (M1 mAChR WT; 10uM Atr + 30uM LY2033, 40 min): 97.3513
- [3H]-NMS binding remaining (0 min = 100), MEAN (M1 mAChR WT; 10uM Atr + 30uM LY2033, 60 min): 85.8605
- [3H]-NMS binding remaining (0 min = 100), MEAN (M1 mAChR WT; 10uM Atr + 30uM LY2033, 90 min): 73.8671
- [3H]-NMS binding remaining (0 min = 100), MEAN (M1 mAChR WT; 10uM Atr + 30uM LY2033, 120 min): 62.858
- [3H]-NMS binding remaining vs Total Binding, MEAN (M4 mAChR Q184A; [2]): 100
- [3H]-NMS binding remaining vs Total Binding, MEAN (M4 mAChR Q184A; [3]): 89.0052
- [3H]-NMS binding remaining vs Total Binding, MEAN (M4 mAChR Q184A; [4]): 100.674
- [3H]-NMS binding remaining vs Total Binding, MEAN (M4 mAChR Q184A; [5]): 109.408
- [3H]-NMS binding remaining vs Total Binding, MEAN (M4 mAChR Q184A; [6]): 91.4218
- [3H]-NMS binding remaining vs Total Binding, MEAN (M4 mAChR Q184A; [7]): 88.0443
- [3H]-NMS binding remaining vs Total Binding, MEAN (M4 mAChR Q184A; [8]): 76.9832

Structure (SMILES): C[N+](C)(C)CC#CCOC1=NOCC1 [iperoxo]
- [3H]-NMS binding remaining (0 min = 100), MEAN (M1 mAChR WT; 10uM Atr + 10 μM Iperoxo, 10 min): 87.0617
- [3H]-NMS binding remaining (0 min = 100), MEAN (M1 mAChR WT; 10uM Atr + 10 μM Iperoxo, 20 min): 66.0557
- [3H]-NMS binding remaining (0 min = 100), MEAN (M1 mAChR WT; 10uM Atr + 10 μM Iperoxo, 40 min): 41.8921
- [3H]-NMS binding remaining (0 min = 100), MEAN (M1 mAChR WT; 10uM Atr + 10 μM Iperoxo, 60 min): 27.7899
- [3H]-NMS binding remaining (0 min = 100), MEAN (M1 mAChR WT; 10uM Atr + 10 μM Iperoxo, 90 min): 20.387
- [3H]-NMS binding remaining (0 min = 100), MEAN (M1 mAChR WT; 10uM Atr + 10 μM Iperoxo, 120 min): 14.5109

Structure (SMILES): CCCCCCOc1nsnc1C1=CCCN(C)C1 [xanomeline]
- antipsychotic efficacy ([1]; M1 mAChR KO mice): partially reduced
- antipsychotic efficacy ([1]; M4 mAChR knockout (KO) mice): completely abolished
- [3H]-NMS binding remaining vs Total Binding, MEAN (M4 mAChR L190F; +100uM Xano, Time 90 min): 72.792
- [3H]-NMS binding remaining vs Total Binding, MEAN (M4 mAChR L190F; +100uM Xano, Time 180 min): 51.0423
- [3H]-NMS binding remaining vs Total Binding, MEAN (M4 mAChR L190F; +100uM Xano, Time 300 min): 24.2929
- [3H]-NMS binding remaining vs Total Binding, MEAN (M4 mAChR Q184A; +100uM Xano, Time 30 min): 83.7482
- [3H]-NMS binding remaining vs Total Binding, MEAN (M4 mAChR Q184A; +100uM Xano, Time 60 min): 84.3012
- [3H]-NMS binding remaining vs Total Binding, MEAN (M4 mAChR Q184A; +100uM Xano, Time 90 min): 69.8323
- [3H]-NMS binding remaining vs Total Binding, MEAN (M4 mAChR Q184A; +100uM Xano, Time 120 min): 76.4651
- [3H]-NMS binding remaining vs Total Binding, MEAN (M4 mAChR Q184A; +100uM Xano, Time 180 min): 50.1077
- [3H]-NMS binding remaining vs Total Binding, MEAN (M4 mAChR Q184A; +100uM Xano, Time 300 min): 18.2224
- rebinding of [3H]-NMS (in words) (M4 mAChR; 10 µM xanomeline alone): prevented the rebinding
- [3H]-NMS dissociation (in words) (M4 mAChR; 100 µM xanomeline alone): slowed to the same extent
